Reference: patent US9970037B2, “Methods and materials for making simvastatin and related compounds” (The Regents of the University of California, priority 2006, dated 2018)

Experiments:
LovD = target: T1, LovD (Aspergillus terreus, UniProt Q9Y7D1); experiment: LovD transacylation assay: acyl transfer from acyl thioester to C8 hydroxyl of monacolin J, HPLC; format: biochemical; set-up: 6xHis (N); made in house; host or cells: E. coli BL21(DE3)/pAW31 (pET28a); settings: for substrate competence for LovD / apparent kcat (initial turnover rate in the linear range) of monacolin J acylation: 1 mM monacolin J; for substrate competence for LovD: 4 mM acyl-CoA, 10 uM LovD, 10 hours; for apparent kcat (initial turnover rate in the linear range) of monacolin J acylation: 10 μM LovD, 4 mM acyl donor; for apparent kcat (initial turnover rate in the linear range) of monacolin J acylation / Initial Velocity (ki): 50 mM HEPES, pH 7.9; for Initial Velocity (ki): 1 mM MJ, 4 mM thioester substrate, 10 uM pure LovD, rate of initial turnover in the linear range
T1 sequence (Q9Y7D1 1-413): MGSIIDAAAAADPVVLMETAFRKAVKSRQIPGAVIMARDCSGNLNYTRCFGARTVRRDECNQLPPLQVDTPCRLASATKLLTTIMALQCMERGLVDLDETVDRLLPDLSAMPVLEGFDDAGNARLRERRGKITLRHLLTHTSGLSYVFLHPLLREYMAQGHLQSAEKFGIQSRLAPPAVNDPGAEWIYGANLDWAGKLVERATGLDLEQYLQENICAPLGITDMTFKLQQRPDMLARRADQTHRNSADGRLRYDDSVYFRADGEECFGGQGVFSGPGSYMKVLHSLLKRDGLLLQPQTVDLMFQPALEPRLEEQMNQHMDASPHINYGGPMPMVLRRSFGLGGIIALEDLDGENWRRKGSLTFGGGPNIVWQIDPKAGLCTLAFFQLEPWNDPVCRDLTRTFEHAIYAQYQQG
Procedure: We first examined if an acyl-CoA can be used as substrate for the transacylation reaction. The uninterrupted gene of LovD was amplified from A. terreus genomic DNA using splice by overlap extension PCR and was inserted into the pET28a expression vector. Overexpression of soluble, N-terminal 6×His fusion LovD was performed in E. coli strain BL21(DE3)/pAW31. LovD was purified using Nickel-NTA affinity column to homogeneity (final yield˜40 mg/L). The substrate monacolin J (1 mM) was prepared through the LiOH hydrolysis of lovastatin and was added to a reaction mixture containing pure LovD (10 μM) and butyryl-CoA (4 mM), which is a commercially available acyl-CoA that best mimics the natural α-methylbutyrate side chain. The reaction mixture was incubated at room temperature, extracted with ethyl acetate and analyzed by HPLC and LC-MS (FIG. 5).
We assayed the tolerance of LovD towards different acyl substituents by performing the transacylation assay with various commercially available acyl-CoAs (Table 1A). All assays were perform with 1 mM monacolin J, 4 mM acyl-CoA and 10 uM LovD for 10 hours.
Expression and purification of LovD has been previously described in detail (see, e.g., Xie et al., 2006, Chem Biol 13: 1161-1169). The assays were performed at room temperature in 50 mM HEPES, pH 7.9. The initial velocities (ki) of the acyl substrates were determined with 10 μM LovD, 1 mM monacolin J and 4 mM of the thioester. The reaction mixture at different time points was quenched by trifluoroacetic acid (TFA), extracted with ethyl acetate, evaporated to dryness and redissolved in acetonitrile. The percent conversion of monacolin J to simvastatin was determined by HPLC analysis (C18). The linear range of the turnover rate is reported as ki in Table 1B. To determine the Km of DMB-S-MMP, the concentration of monacolin J is fixed at 2 mM, while the concentration of DMB-S-MMP was varied from 0.2 mM to 10 mM. DMSO is added to a final concentration of 5% to facilitate solubilization of DMB-S-MMP. To obtain Km of monacolin J, DMB-S-MMP concentration is fixed at 2 mM, while the concentration of monacolin J is varied from 0.2 mM to 5 mM.

E. coli BL21(DE3)/pAW31 = experiment: Whole cell biocatalysis with E. coli overexpressing LovD; format: cell-based, Escherichia coli; settings: 4 mM acyl donor
Procedure: The BL21(DE3)/pAW31 overexpression strain was grown in a shake flask (200 mL) to an OD600 of 1.0, at which time 1 mM IPTG, 0.8 mM monacolin J and 4 mM of either benzoyl-SNAC or benzoyl-SMTG were added to the culture. Expression of LovD and bioconversion was performed at 18° C. The culture was extracted and analyzed for the formation of 8-benzoyl-monacolin J. When supplemented with benzoyl-SNAC, 84% conversion of monacolin J was detected within 20 hours post-induction. The product was lactonized and purified by a single silica-gel chromatography step. The NMR spectra confirmed the regioselective benzoylation of the C8 hydroxyl group as the diagnostic H8 multiplet is shifted downfield to δ 5.61.
Fermentation conditions: 500 mL culture with LB media with 30 mg/L kanamycin. At OD600 of 1.0, cells were concentrated to a final OD600 of 5.0 and induced with 1 mM IPTG. Substrates monacolin J and α-dimethylbutyryl-SNAC were added to a final concentration of 1 mM and 4 mM. At different time points, culture samples were collected, centrifuged, filtered and injected on to HPLC (20 μL). Extraction conditions: When maximum conversion was reached, the broth was acidified to pH of 2.0, extracted with ethyl acetate, dried and redissolved in toluene.
Whole-cell catalytic synthesis of simvastatin acid from MJ acid and DMB-S-MMP were performed as described (see, e.g., Xie et al., (2007) Appl Environ Microbiol 73: 2054-2060). The E. coli BL21(DE3)/pAW31 and YT2/pAW31 strains were cultured side-by-side for comparison. A single colony of the freshly transformed strains was used to inoculate a 5 mL LB culture supplemented with 35 mg/L kanamycin and grown overnight at 37° C. The next morning, 100 μL of the overnight culture was inoculated into 50 mL cultures containing LB broth, F1 minimal medium and F1 medium supplemented with 0.15 mg/L biotin. Growth rates were monitored by periodically measuring the OD600 reading. When OD600 reached ˜0.5, 100 μM IPTG was added to the culture and expression of LovD was performed at 20° C. for 16 hours. To mimic high density fermentation conditions, the cells were concentrated 10-fold before addition of substrates. Typically, a 14 mL aliquot of the culture was transferred to a 15 mL centrifuge tube and the cells were collected by centrifugation (4° C., 4000 g, 10 minutes). The cell pellet was gently resuspended in 1316 μl of the supernatant, followed by addition of 84 μl of a MJ acid stock solution (250 mM in H2O) (final concentration 15 mM). The concentrated culture was then separated into seven 200 μL samples and 1.2 μL of pure DMB-S-MMP was added to each sample (final concentration ˜25 mM). The culture was then shaken at 300 rpm at room temperature. At each time point, a total extraction was performed by adding 10 μL 20% SDS to lyse the cells, followed by liquid-liquid extraction with 500 μL EA/1% AcOH. The organic phase was removed, evaporated, and redissolved in 50 μL ACN for HPLC analysis. For the BL21(DE3) sample, an additional 1.2 μL aliquot of DMB-S-MMP was added after 12 hours to replenish the hydrolyzed substrates.
The E. coli BL21(DE3)/pAW31 strain was grown in LB medium at 37° C. to an OD600 of 0.5, at which time 100 μM IPTG was added to the culture and expression was performed at RT for 16 hours. A 10 ml culture was transferred to a 15 mL centrifuge tube. The cells were collected by centrifugation (4000 g, 10 minutes). The cell pellet was resuspended in 957 μl of the supernatant. The pH was adjusted to pH 7.9 with 1.0 N NaOH, followed by addition of 33 μl 450 mM MJ (final concentration 15 mM) and 6 μl pure DMB-S-MMP (final concentration ˜25 mM). The culture was then shaken at 300 rpm at room temperature. At each time point, a 4 μL aliquot was removed from the reaction mixture, quenched in 300 μL ethyl acetate containing 1% TFA.

BioH = target: T2, BioH (Escherichia coli, UniProt P13001); experiment: BioH enzymatic hydrolysis assay of dimethylbutyryl thioesters, HPLC 234 nm; format: biochemical; settings: 1 mM substrate, 10 nM BioH
T2 construct: The bioH gene was amplified from E. coli genomic DNA by PCR with flanking restriction sites NdeI and EcoRI; 6xHis (N); made in house; host or cells: E. coli BL21(DE3)/pXK8 (pET28a)
T2 sequence (P13001 1-256): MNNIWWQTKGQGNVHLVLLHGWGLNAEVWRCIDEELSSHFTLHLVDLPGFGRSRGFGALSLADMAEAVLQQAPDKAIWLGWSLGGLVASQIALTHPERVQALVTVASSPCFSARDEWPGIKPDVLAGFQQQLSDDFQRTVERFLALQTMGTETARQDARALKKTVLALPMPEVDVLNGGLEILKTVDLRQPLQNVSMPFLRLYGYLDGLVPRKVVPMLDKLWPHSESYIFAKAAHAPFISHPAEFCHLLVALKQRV
Procedure: (§1) The hydrolysis assays were performed at room temperature in 50 mM HEPES, pH 7.9. The thioester substrate DMB-S-MMP was added to final concentration between 0.1 mM and 1.0 mM. To facilitate solubilization of DMB-S-MMP, DMSO was added to a final concentration of 10% for all the samples. The reaction was initiated with the addition of BioH (0.01 μM) and quenched at desired time points (10, 20, 30 minutes) by adding equal volume of EA/1% AcOH. The organic phase was separated, dried and redissolved in 20 μL of ACN and analyzed with HPLC. The conversions of DMB-S-MMP to DMB-S-MPA were quantified by integration of the peaks at 234 nm. Comparison of the BioH catalytic efficiency towards the three dimethylbutyryl thioesters were performed at 1 mM substrate concentration and 10 nM BioH concentration.

[1] = substrate: CCC(C)(C)C(=O)SCCC(=O)OC; experiment: as above; format: biochemical, Escherichia coli; settings: other: 50 mM HEPES, pH 7.9, 10% DMSO, 0.01 μM BioH
Procedure: as §1

## CC(C)(COP(=O)(O)OP(=O)(O)OC[C@H]1O[C@@H](n2cnc3c(N)ncnc32)[C@H](O)[C@@H]1OP(=O)(O)O)[C@@H](O)C(=O)NCCC(=O)NCCSC(=O)CC(=O)O [malonyl-CoA, reference compound]
LovD
  substrate competence for LovD: inactive

## CCCC(=O)SCCNC(C)=O [butyryl-SNAC]
LovD
  apparent kcat (initial turnover rate in the linear range) of monacolin J acylation: 0.0015 s⁻¹

## C[C@H]1C=C2C=C[C@H](C)[C@H](CC[C@@H]3C[C@@H](O)CC(=O)O3)[C@H]2[C@@H](O)C1 [monacolin J]
LovD; DMB-S-MMP fixed at 2 mM, monacolin J 0.2-5 mM
  Km: 780 ± 120 µM

## CCCCCCCCCCCCCCCC(=O)SCCNC(=O)CCNC(=O)[C@H](O)C(C)(C)COP(=O)(O)OP(=O)(O)OC[C@H]1O[C@@H](n2cnc3c(N)ncnc32)[C@H](O)[C@@H]1OP(=O)(O)O [palmitoyl-CoA, reference compound]
LovD
  substrate competence for LovD: inactive

## CC(=O)NCCSC(=O)c1ccccc1 [benzoyl-SNAC]
E. coli BL21(DE3)/pAW31; 0.8 mM monacolin J, 18° C., within 20 hours post-induction
  conversion of monacolin J (benzoylation) in vivo: 84%
LovD
  apparent kcat (initial turnover rate in the linear range) of monacolin J acylation: 0.002 s⁻¹

## CCC(C)(C)C(=O)SCCNC(C)=O [DMB-S-NAC, α-dimethylbutyryl-S-N-acetylcysteamine]
E. coli BL21(DE3)/pAW31; 1 mM monacolin J, after two days of culturing
  conversion of monacolin J to simvastatin, low cell-density fermentation: ~90%
LovD
  Initial Velocity (ki): 0.02 min⁻¹

## CC(O)CC(=O)SCCNC(=O)CCNC(=O)[C@H](O)C(C)(C)COP(=O)(O)OP(=O)(O)OC[C@H]1O[C@@H](n2cnc3c(N)ncnc32)[C@H](O)[C@@H]1OP(=O)(O)O (stereo partly drawn) [β-hydroxylbutyryl-CoA, reference compound]
LovD
  substrate competence for LovD: excellent substrates

## CCC(C)(C)C(=O)SCCCC(=O)OC [DMB-S-MMB, dimethylbutyryl-S-methyl mercaptobutyrate]
LovD
  Initial Velocity (ki): 0.78 min⁻¹

## CC[C@H](C)C(=O)SCCNC(C)=O [α-S-methylbutyryl-SNAC]
LovD
  apparent kcat (initial turnover rate in the linear range) of monacolin J acylation: ~0.00067 s⁻¹

## CCC(C)(C)C(=O)SCC(=O)OC [DMB-S-MTG, dimethylbutyryl-S-methyl thioglycolate]
BioH
  decrease in the rate of hydrolysis by BioH relative to DMB-S-MMP: 2.5 fold
LovD
  Initial Velocity (ki): 0.03 min⁻¹

## CCOC(=O)CCSC(=O)C(C)(C)CC [DMB-S-EMP, dimethylbutyryl-S-ethyl mercaptopropionate]
BioH
  rate of substrate hydrolysis by BioH relative to DMB-S-MMP: significantly attenuated
LovD
  Initial Velocity (ki): 0.70 min⁻¹

## CC(=O)CC(=O)SCCNC(=O)CCNC(=O)[C@H](O)C(C)(C)COP(=O)(O)OP(=O)(O)OC[C@H]1O[C@@H](n2cnc3c(N)ncnc32)[C@H](O)[C@@H]1OP(=O)(O)O [Acetoacetyl-CoA, reference compound]
LovD
  substrate competence for LovD: excellent substrates

B1: BioH (Escherichia coli K-12) (protein)
chain: MNNIWWQTKGQGNVHLVLLHGWGLNAEVWRCIDEELSSHFTLHLVDLPGFGRSRGFGALSLADMAEAVLQQAPDKAIWLGWSLGGLVASQIALTHPERVQALVTVASSPCFSARDEWPGIKPDVLAGFQQQLSDDFQRTVERFLALQTMGTETARQDARALKKTVLALPMPEVDVLNGGLEILKTVDLRQPLQNVSMPFLRLYGYLDGLVPRKVVPMLDKLWPHSESYIFAKAAHAPFISHPAEFCHLLVALKQRV
notes: The bioH gene was amplified from E. coli genomic DNA by PCR with flanking restriction sites NdeI and EcoRI; 6xHis (N); made in house; host or cells: E. coli BL21(DE3)/pXK8 (pET28a)
[1]
  Km: 229 ± 26 µM
  kcat: 260 ± 45 s⁻¹
